Results published in US20230115640A1, “BLASTOCYST-LIKE STRUCTURES FROM EXTENDED PLURIPOTENT STEM CELLS” (Salk Institute for Biological Studies, priority 2019, published 2023).
“And” between values parts separate entries of the source, which are not always exact repeats. Equal values may be shown once.

Legend:
[1] = tested on: mouse EPS cell aggregates; experiment: EPS-blastoid formation efficiency (blastocyst-like structures / total cell aggregates) in AggreWell 3D differentiation; format: cell-based; conditions: for Nblastoid/Ntotal (%), EPS-blastoid efficiency with treatment of Wnt antagonists: XAV939 5 μM or IWR-1-endo 10 μM added to medium at day 1, five days in blastoid induction medium; for EPS-blastoids formation (effect of WNT antagonists, in words): blastoid induction medium supplemented with antagonist
Description: To further improve the differentiation conditions, different growth factors, cytokines, and small molecules were included to identify condition(s) that enable the generation of structures mimicking blastocysts (EPS-blastoids), which contain a cavity and an inner cell mass. […] Using this optimized condition, EPS-blastoids consistently emerged three days after cell seeding (FIG. 1D). EPS-blastoids continued to enlarge, reaching an early blastocyst-like size at around day five or day six. To quantify the efficiency of EPS-blastoid formation, the total number of blastocyst-like structures were counted, with this count divided it by the total number of cell aggregates.
EPS colonies were dissociated into single cells by incubation with TrypLE (Thermo Fisher Scientific, 12604-013). Cell resuspension was transferred into a 0.1% gelatin-coated plate and incubated at 37° C. for 30 min to allow irradiated MEF cells attach to the plate. The supernatant containing the EPS cells were collected, filtered through a 40 μm cell strainer, and counted using the TC-10 counter (Bio-Rad, 1450001). AggreWell 400 (STEMCELL Technologies, 34415) was prepared following the manufacturer's instructions. EPS-blastoid basal medium is composed of 25% TSC basal medium (see above), 25% N2B27 basal medium (see above), and 50% KSOM (see above). In some experiments, M16 (Sigma-Aldrich, M7292) was used to replace KSOM. Approximately 6,000 cells (five cells per microwell for 1200 microwells) were resuspended in EPS-blastoid basal medium supplemented with 2 μM ROCK inhibitor Y-27632 (Reagents Direct, 53-B80-50), 12.5 ng/ml rhFGF4 (R&D, 235F4025), 0.5 μg/ml Heparin (Sigma-Aldrich, H3149), 3 μM GSK3 inhibitor CHIR99021 (Reagents Direct, 27-H76), 5 ng/ml BMP4 (Proteintech, HZ-1040), and 0.5 μM A83-01 (Axon Medchem, 1421) and seeded into one well of the 24-well AggreWell plate. The plate was centrifuged at 300g for one minute and transferred into an incubator. The day of cell seeding was counted as day 0 of the process. Medium was removed 24 h later (day 1) and replaced with fresh medium without Y-27632. Additional medium change is optional for the rest of the EPS-blastoid formation process. Starting from day 4, blastoids were manually picked up using a mouth pipette (Sigma-Aldrich, A5177) under a stereomicroscope for analysis or downstream experiments. For testing of the effect of antagonists or inhibitors on EPS-blastoid induction, chemicals were added to the medium at day 1. XAV939 (5 μM; Tocris, 3748) or IWR-1-endo (10 μM; STEMCELL Technologies, 72562) was used to inhibit Wnt signaling. Verteporfin (2 μM; Tocris, 5305) was used to inhibit YAP/TEAD interaction. For testing whether a single EPS cell forms into a blastoid, WT cells and Puromycin+/mcherry+ cells were mixed at a ratio of 10:1 and seeded onto Aggrewell 400 as stated above. Puromycin (0.25 μg/ml; InvivoGen, ant-pr-1) was added to the medium 24 hours later to eliminate helper cells gradually.

[2] = tested on: EPS cells; experiment: EPS cell survival on the day of seeding; format: cell-based, mouse; conditions: treated on the day of seeding
[3] = tested on: mouse ESCs; conditions: He et al., 2008; cited from earlier work

Q: With `O=C(Nc1cccc2cccnc12)c1ccc(N2C(=O)[C@@H]3[C@H](C2=O)[C@@H]2C=C[C@H]3C2)cc1` [IWR-1-endo] as the molecule, how does the “Nblastoid/Ntotal (%), EPS-blastoid efficiency with treatment of Wnt antagonists” value ([1]; per experiment) read?
A: The value was 0.28% and 0.41% and 1.23% and 0.81% and 0.42%.

Q: And the “EPS-blastoids formation (effect of WNT antagonists, in words)” value [1]?
A: The value was “significantly inhibited”.

Q: What does the source list for `Oc1nc(-c2ccc(C(F)(F)F)cc2)nc2c1CSCC2` [XAV939]?
A: Nblastoid/Ntotal (%), EPS-blastoid efficiency with treatment of Wnt antagonists ([1]; per experiment, listed as XVA939): 0.3% and 0.28% and 0.45% and 0.41% and 0.8%; EPS-blastoids formation (effect of WNT antagonists, in words) [1]: significantly inhibited

Q: With `C[C@@H](N)[C@H]1CC[C@H](C(=O)Nc2ccncc2)CC1` [Y-27632] as the molecule, how does the “cell survival of EPS cells” value [2] read?
A: The value was “enhanced cell survival”.

Q: For verteporfin [VP], which “Nblastoid/Ntotal (%), EPS-blastoid efficiency with treatment of YAP-TEAD inhibitor” value ([1]; verteporfin 2 μM added to medium at day 1, five days of blastoid induction, per experiment) is on record?
A: Its value is 1.43% and 0.36% and 0.87% and 1.05%.

B1: Wnt-3a (protein, UniProt P56704 19-352, looked up)
Protein Wnt-3a: SYPIWWSLAVGPQYSSLGSQPILCASIPGLVPKQLRFCRNYVEIMPSVAEGIKIGIQECQHQFRGRRWNCTTVHDSLAIFGPVLDKATRESAFVHAIASAGVAFAVTRSCAEGTAAICGCSSRHQGSPGKGWKWGGCSEDIEFGGMVSREFADARENRPDARSAMNRHNNEAGRQAIASHMHLKCKCHGLSGSCEVKTCWWSQPDFRAIGDFLKDKYDSASEMVVEKHRESRGWVETLRPRYTYFKVPTERDLVYYEASPNFCEPNPETGSFGTRDRTCNVSSHGIDGCDLLCCGRGHNARAERRREKCRCVFHWCCYVSCQECTRVYDVHTCK
notes: Wnt agonist protein
Q: With B1 as the molecule, how does the “CDX2 (trophoblast transcription factor) expression in mouse ESCs” value [3] read?
A: The value was “transiently up-regulates CDX2”.
